Patent US6737383B1, “Herbicidal oxadiazolidines” (priority 1999, dated 2004)

Key:
bedstraw = assay: Test B pre/postemergence bedstraw; type: in vivo, Galium aparine
Method in brief: (§1)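 Test chemicals in a non-phytotoxic solvent mixture with surfactant were sprayed preemergence onto planted seeds and postemergence onto plants 2 to 18 cm tall (1- to 4-leaf stage). After twelve to sixteen days in a greenhouse, injury was visually rated against untreated controls from 0 (no effect) to 10 (complete control).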

blackgrass = assay: Test B pre/postemergence blackgrass; type: in vivo, Alopecurus myosuroides
Method in brief: as §1

surinam grass = assay: Test B pre/postemergence surinam grass; type: in vivo, Brachiaria decumbens
Method in brief: as §1

cocklebur = assay: Test B pre/postemergence cocklebur; type: in vivo, Xanthium strumarium
Method in brief: as §1

corn = assay: Test B pre/postemergence corn; type: in vivo, Zea mays
Method in brief: as §1

giant foxtail = assay: Test B pre/postemergence giant foxtail; type: in vivo, Setaria faberii
Method in brief: as §1

morningglory = assay: Test B pre/postemergence morningglory; type: in vivo, Ipomoea hederacea
Method in brief: as §1

pigweed = assay: Test B pre/postemergence pigweed; type: in vivo, Amaranthus retroflexus
Method in brief: as §1

rape = assay: Test B pre/postemergence rape; type: in vivo, Brassica napus
Method in brief: as §1

soybean = assay: Test B pre/postemergence soybean; type: in vivo, Glycine max
Method in brief: as §1

sugar beet = assay: Test B pre/postemergence sugar beet; type: in vivo, Beta vulgaris
Method in brief: as §1

velvetleaf = assay: Test B pre/postemergence velvetleaf; type: in vivo, Abutilon theophrasti
Method in brief: as §1

wheat = assay: Test B pre/postemergence wheat; type: in vivo, Triticum aestivum
Method in brief: as §1

wild oat = assay: Test B pre/postemergence wild oat; type: in vivo, Avena fatua
Method in brief: as §1

rice = assay: Test B flood test rice; type: in vivo, Oryza sativa
Method in brief: (§2)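 Each value is a visual injury score relative to controls, with 10 meaning complete control and 0 no effect. Evaluation took place twelve to sixteen days after the 2-leaf-stage plants were treated and kept in the greenhouse.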

smallflower flatsedge = assay: Test B flood test smallflower flatsedge; type: in vivo, Cyperus difformis
Method in brief: as §2

[1] = Postemergence, Rate 250 g/ha, scale 0 to 10, 0 no effect, 10 complete control
[2] = Postemergence, Rate 1000 g/ha, scale 0 to 10 (0 no effect, 10 complete control)
[3] = Preemergence, Rate 125 g/ha, scale 0 to 10 (0 no effect, 10 complete control)
[4] = Preemergence, Rate 250 g/ha, scale of 0 to 10 where 0 is no effect and 10 is complete control
[5] = Preemergence, Rate 500 g/ha, scale 0 (no effect) to 10 (complete control)
[6] = Rate 125 g/ha, Postemergence, scale 0 to 10, 0 no effect, 10 complete control
[7] = Rate 500 g/ha, Postemergence, 0 to 10 scale (0 no effect, 10 complete control)
[8] = Rate 1000 g/ha, Preemergence, scale 0 to 10 (0 no effect, 10 complete control)
[9] = Rate 125 g/ha, Postemergence section (flood test species), scale 0 to 10, 0 no effect, 10 complete control
[10] = flood test, listed under Postemergence, Rate 250 g/ha, scale 0 to 10, 0 no effect, 10 complete control

CC(C)N(C(=O)n1oc(=O)n(-c2ccc(OC(F)(F)F)cc2)c1=O)C1=CCOCC1 [Compound 13]
Bedstraw plant response rating (bedstraw; [1]): 0
Bedstraw plant response rating (bedstraw; [2]): 0
Plant response rating, Bedstraw (bedstraw; [3]): 0
Plant response rating, Bedstraw (bedstraw; [4]): 0
Bedstraw plant response rating (bedstraw; [5]): 0
Bedstraw plant response rating (bedstraw; [6]): 0
Bedstraw plant response rating (bedstraw; [7]): 0
Plant response rating, Bedstraw (bedstraw; [8]): 3
Blackgrass plant response rating (blackgrass; [1]): 3
Blackgrass plant response rating (blackgrass; [2]): 8
Plant response rating, Blackgrass (blackgrass; [3]): 0
Plant response rating, Blackgrass (blackgrass; [4]): 0
Blackgrass plant response rating (blackgrass; [5]): 6
Blackgrass plant response rating (blackgrass; [6]): 0
Blackgrass plant response rating (blackgrass; [7]): 4
Plant response rating, Blackgrass (blackgrass; [8]): 9
B. signalgrass plant response rating (surinam grass; [1]): 2
B. signalgrass plant response rating (surinam grass; [2]): 6
Plant response rating, B. signalgrass (surinam grass; [3]): 0
Plant response rating, B. signalgrass (surinam grass; [4]): 2
B. signalgrass plant response rating (surinam grass; [5]): 4
B. signalgrass plant response rating (surinam grass; [6]): 0
B. signalgrass plant response rating (surinam grass; [7]): 5
Plant response rating, B. signalgrass (surinam grass; [8]): 8
Cocklebur plant response rating (cocklebur; [1]): 0
Cocklebur plant response rating (cocklebur; [2]): 0
Plant response rating, Cocklebur (cocklebur; [3]): 0
Plant response rating, Cocklebur (cocklebur; [4]): 0
Cocklebur plant response rating (cocklebur; [5]): 0
Cocklebur plant response rating (cocklebur; [6]): 0
Cocklebur plant response rating (cocklebur; [7]): 0
Corn plant response rating (corn; [1]): 0
Corn plant response rating (corn; [2]): 0
Plant response rating, Corn (corn; [3]): 0
Plant response rating, Corn (corn; [4]): 0
Corn plant response rating (corn; [5]): 0
Corn plant response rating (corn; [6]): 0
Corn plant response rating (corn; [7]): 0
Plant response rating, Corn (corn; [8]): 0
Giant foxtail plant response rating (giant foxtail; [1]): 2
Giant foxtail plant response rating (giant foxtail; [2]): 7
Plant response rating, Giant foxtail (giant foxtail; [3]): 3
Plant response rating, Giant foxtail (giant foxtail; [4]): 8
Giant foxtail plant response rating (giant foxtail; [5]): 8
Giant foxtail plant response rating (giant foxtail; [6]): 0
Giant foxtail plant response rating (giant foxtail; [7]): 7
Plant response rating, Giant foxtail (giant foxtail; [8]): 8
Morningglory plant response rating (morningglory; [1]): 0
Morningglory plant response rating (morningglory; [2]): 0
Plant response rating, Morningglory (morningglory; [3]): 0
Plant response rating, Morningglory (morningglory; [4]): 0
Morningglory plant response rating (morningglory; [5]): 0
Morningglory plant response rating (morningglory; [6]): 0
Morningglory plant response rating (morningglory; [7]): 0
Plant response rating, Morningglory (morningglory; [8]): 2
Redroot pigweed plant response rating (pigweed; [1]): 0
Redroot pigweed plant response rating (pigweed; [2]): 0
Plant response rating, Redroot pigweed (pigweed; [3]): 0
Plant response rating, Redroot pigweed (pigweed; [4]): 0
Redroot pigweed plant response rating (pigweed; [5]): 0
Redroot pigweed plant response rating (pigweed; [6]): 0
Redroot pigweed plant response rating (pigweed; [7]): 0
Plant response rating, Redroot pigweed (pigweed; [8]): 3
Rape plant response rating (rape; [1]): 0
Rape plant response rating (rape; [2]): 1
Plant response rating, Rape (rape; [3]): 0
Plant response rating, Rape (rape; [4]): 0
Rape plant response rating (rape; [5]): 0
Rape plant response rating (rape; [6]): 0
Rape plant response rating (rape; [7]): 1
Plant response rating, Rape (rape; [8]): 0
Soybean plant response rating (soybean; [1]): 2
Soybean plant response rating (soybean; [2]): 3
Plant response rating, Soybean (soybean; [3]): 0
Plant response rating, Soybean (soybean; [4]): 0
Soybean plant response rating (soybean; [5]): 0
Soybean plant response rating (soybean; [6]): 1
Plant response rating, Soybean (soybean; [8]): 0
Sugarbeets plant response rating (sugar beet; [1]): 0
Sugarbeets plant response rating (sugar beet; [2]): 0
Plant response rating, Sugarbeets (sugar beet; [3]): 0
Plant response rating, Sugarbeets (sugar beet; [4]): 0
Sugarbeets plant response rating (sugar beet; [5]): 0
Sugarbeets plant response rating (sugar beet; [6]): 0
Plant response rating, Sugarbeets (sugar beet; [8]): 0
Velvetleaf plant response rating (velvetleaf; [1]): 0
Velvetleaf plant response rating (velvetleaf; [2]): 0
Plant response rating, Velvetleaf (velvetleaf; [3]): 0
Plant response rating, Velvetleaf (velvetleaf; [4]): 0
Velvetleaf plant response rating (velvetleaf; [5]): 0
Velvetleaf plant response rating (velvetleaf; [6]): 0
Plant response rating, Velvetleaf (velvetleaf; [8]): 2
Wheat plant response rating (wheat; [1]): 0
Wheat plant response rating (wheat; [2]): 0
Plant response rating, Wheat (wheat; [3]): 0
Plant response rating, Wheat (wheat; [4]): 0
Wheat plant response rating (wheat; [5]): 0
Wheat plant response rating (wheat; [6]): 0
Plant response rating, Wheat (wheat; [8]): 0
Wild oats plant response rating (wild oat; [1]): 0
Wild oats plant response rating (wild oat; [2]): 2
Plant response rating, Wild oats (wild oat; [3]): 0
Plant response rating, Wild oats (wild oat; [4]): 0
Wild oats plant response rating (wild oat; [5]): 2
Wild oats plant response rating (wild oat; [6]): 0
Plant response rating, Wild oats (wild oat; [8]): 7
Rice plant response rating (rice; [2]): 0
Rice plant response rating (rice; [9]): 0
Rice plant response rating (rice; Rate 500 g/ha, Postemergence section of Table B, 0 to 10 scale (0 no effect, 10 complete control)): 0
Rice plant response rating (rice; [10]): 0
S. Flatsedge plant response rating (smallflower flatsedge; [2]): 0
S. Flatsedge plant response rating (smallflower flatsedge; [9]): 0
S. Flatsedge plant response rating (smallflower flatsedge; [10]): 0
